What all share (type): biochemical
Assay [1] has as its target T1, c-Src (Homo sapiens, UniProt P12931).
T1 construct: made in house; host or cells: baculovirus infected insect cells
The experiment in a line: c-Src kinase assay, 32P incorporation into polyglutamate-tyrosine. The following applies: 5 μM ATP. On the procedure:
Other Kinases. c-Src kinase is purified from baculovirus infected insect cell lysates using an antipeptide monoclonal antibody directed against the N-terminal 2-17 amino acids as described previously by Fry, et al., Anticancer Drug Design, 1994;9:331-351. Protein kinase C (PKC.) is obtained as a rat brain preparation from Promega.
c-Src. The antibody, covalently linked to 0.65-μm latex beads, is added to a suspension of insect cell lysis buffer comprised of 150 mM NaCl, 50 mM Tris pH 7.5, 1 mM DTT, 1% NP-40, 2 mM EGTA, 1 mM sodium vanadate, 1 mM PMSF, 1 μg/mL each of leupeptin, pepstatin, and aprotinin. Insect cell lysate containing the c-Src protein is incubated with these beads for 3 to 4 hours at 4° C. with rotation. At the end of the lysate incubation, the beads are rinsed three times in lysis buffer, resuspended in lysis buffer containing 10% glycerol, and frozen. These latex beads are thawed, rinsed three times in assay buffer which is comprised of 40 mM tris pH 7.5, 5 mM magnesium chloride, and suspended in the same buffer. In a Millipore 96-well plate with a 0.65 μm polyvinylidine membrane bottom are added the reaction components: 10-μL c-Src beads, 10 μL of 2.5 mg/mL polyglutamate-tyrosine substrate, 5 μM ATP containing 0.2 μCi labeled ^32 P-ATP, 5 μL DMSO containing inhibitors or as a solvent control, and buffer to make the final volume 125 μL. The reaction is started at room temperature by addition of the ATP and quenched 10 minutes later by the addition of 125 μL of 30% TCA, 0.1 M sodium pyrophosphate for 15 minutes on ice. The plate is then filtered and the wells washed with two 250-μL aliquots of 15% TCA, 0.1 M pyrophosphate. The filters are punched, counted in a liquid scintillation counter, and the data examined for inhibitory activity in comparison to a known inhibitor such as erbstatin. The method is described more fully in J. Med. Chem., 1994;37:598-609.

For assay [2], the target named is T2, FGFr (human FGF-1 (flg) receptor tyrosine kinase) (Homo sapiens, UniProt P11362).
T2 construct: PCR primers are designed to amplify a fragment of DNA that codes for the intracellular tyrosine kinase domain; made in house; host or cells: Sf9 insect cells (baculovirus), cell lysate
T2 sequence (P11362 478-767 limits assumed): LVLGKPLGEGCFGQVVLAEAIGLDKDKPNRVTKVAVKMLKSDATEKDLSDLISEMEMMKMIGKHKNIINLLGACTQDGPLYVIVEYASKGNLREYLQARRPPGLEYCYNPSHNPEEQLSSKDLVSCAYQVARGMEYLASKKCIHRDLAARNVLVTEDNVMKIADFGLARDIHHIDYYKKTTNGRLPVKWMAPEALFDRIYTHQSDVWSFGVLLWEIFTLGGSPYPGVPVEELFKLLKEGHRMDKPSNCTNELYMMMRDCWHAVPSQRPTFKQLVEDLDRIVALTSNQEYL
The experiment in a line: FGFr tyrosine kinase assay, 32P incorporation into glutamate-tyrosine copolymer. As to conditions: 50 μM ATP; read-out: FGFr IC50. On the procedure:
(§1) Platelet Derived Growth Factor Receptor (PDGFr) and Fibroblast Growth Factor Receptor (FGFr). Full length cDNAs for the mouse PDGF-β and human FGF-1 (flg) receptor tyrosine kinases were obtained from J. Escobedo and are prepared as described in J. Biol. Chem., 1991;262:1482-1487. PCR primers are designed to amplify a fragment of DNA that codes for the intracellular tyrosine kinase domain. The fragment is melded into a baculovirus vector, cotransfected with AcMNPV DNA, and the recombinant virus isolated. SF9 insect cells are infected with the virus to overexpress the protein, and the cell lysate is used for the assay.
(§2) PDGFr and FGFr. […] Briefly, to each well is added 82.5 μL of incubation buffer containing 25 mM Hepes (pH 7.0), 150 mM NaCl, 0.1% Triton X-100, 0.2 mM PMSF, 0.2 mM sodium vanadate, 10 mM manganese chloride, and 750 μg/mL of poly (4:1) glutamate-tyrosine followed by 2.5 μL of inhibitor and 5 μL of enzyme lysate (7.5 μg/μL FGFR-TK or 6.0 μg/μL PDGFR-TK) to initiate the reaction. Following a 10 minute incubation at 25° C., 10 μL of [γ^32 P]ATP (0.4 μCi plus 50 μM ATP) is added to each well, and samples are incubated for an additional 10 minutes at 25° C. The reaction is terminated by the addition of 100 μL of 30% trichloroacetic acid (TCA) containing 20 mM sodium pyrophosphate and precipitation of material onto glass fiber filter mats (Wallac). […] Nonspecific activity is defined as radioactivity retained on the filters following incubation of samples with buffer alone; (no enzyme). Specific enzymatic activity is defined as total activity (enzyme plus buffer) minus nonspecific activity.

The target in assay [3] is T3, PDGFr (mouse PDGF-β receptor tyrosine kinase) (Mus musculus, UniProt P05622).
T3 construct: PCR primers are designed to amplify a fragment of DNA that codes for the intracellular tyrosine kinase domain; made in house; host or cells: Sf9 insect cells (baculovirus), cell lysate
T3 sequence (P05622 599-961 limits assumed): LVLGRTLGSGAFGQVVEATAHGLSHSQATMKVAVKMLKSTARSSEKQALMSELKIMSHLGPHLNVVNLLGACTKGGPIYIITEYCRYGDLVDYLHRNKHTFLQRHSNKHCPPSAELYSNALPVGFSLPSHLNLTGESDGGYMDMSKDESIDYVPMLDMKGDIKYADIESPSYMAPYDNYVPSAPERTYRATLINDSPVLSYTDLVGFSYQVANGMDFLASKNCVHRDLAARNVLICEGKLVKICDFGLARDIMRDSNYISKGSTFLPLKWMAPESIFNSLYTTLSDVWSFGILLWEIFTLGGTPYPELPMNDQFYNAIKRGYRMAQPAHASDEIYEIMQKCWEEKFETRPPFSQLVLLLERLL
The experiment in a line: PDGFr tyrosine kinase assay, 32P incorporation into glutamate-tyrosine copolymer. As to conditions: 50 μM ATP. The protocol: as §1, §2

Twelve compounds from patent US6150359A, “Naphthyridinones for inhibiting protein tyrosine kinase and cell cycle kinase mediated cellular proliferation” (Warner-Lambert Company, priority 2000, dated 2000) can be followed below.

T1 sequence (P12931 whole entry, species assumed): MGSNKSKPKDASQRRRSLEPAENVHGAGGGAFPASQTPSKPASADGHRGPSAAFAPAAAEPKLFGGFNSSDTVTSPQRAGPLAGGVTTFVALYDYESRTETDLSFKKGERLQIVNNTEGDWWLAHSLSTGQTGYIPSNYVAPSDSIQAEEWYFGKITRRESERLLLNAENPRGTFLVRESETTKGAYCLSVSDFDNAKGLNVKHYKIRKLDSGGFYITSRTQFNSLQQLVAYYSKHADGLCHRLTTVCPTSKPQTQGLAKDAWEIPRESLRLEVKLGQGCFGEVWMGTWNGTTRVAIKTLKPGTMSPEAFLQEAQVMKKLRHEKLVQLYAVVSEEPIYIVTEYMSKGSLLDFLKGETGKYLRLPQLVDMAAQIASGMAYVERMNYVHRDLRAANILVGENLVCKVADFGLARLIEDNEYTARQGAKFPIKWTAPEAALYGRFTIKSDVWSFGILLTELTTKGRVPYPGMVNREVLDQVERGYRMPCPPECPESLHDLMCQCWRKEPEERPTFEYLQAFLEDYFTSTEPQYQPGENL

Regarding `CNc1cc2c(cn1)cc(-c1c(Cl)cccc1Cl)c(=O)n2C` [Example B, 3-(2,6-dichlorophenyl)-1-methyl-7-methylamino-1H-[1,6]naphthyridin-2-one], the results for the IC50 in assay [1], in assay [2] and in assay [3] were 420 nM, 340 nM and 3600 nM, respectively.
Taken in the same sequence, the figures for `CCN(CC)CCNc1cc2c(cn1)cc(-c1c(Cl)cccc1Cl)c(=O)n2C` [Example D, 3-(2,6-dichlorophenyl)-7-[2-(diethylamino)ethylamino]-1-methyl-1H-[1,6]naphthyridin-2-one] were 13000 nM, 3700 nM and 16000 nM.
Taken in the same sequence, the figures for `CCN(CC)CCCNc1cc2c(cn1)cc(-c1c(Cl)cccc1Cl)c(=O)n2C` [Example E, 3-(2,6-dichlorophenyl)-7-[3-(diethylamino)propylamino]-1-methyl-1H-[1,6]naphthyridin-2-one] were 300 nM, 220 nM and 4000 nM.
Taken in the same sequence, the figures for `CCN(CC)CCCCCNc1cc2c(cn1)cc(-c1c(Cl)cccc1Cl)c(=O)n2C` [Example G, 3-(2,6-dichlorophenyl)-7-[5-(diethylamino)pentylamino]-1-methyl-1H-[1,6]naphthyridin-2-one] were 20 nM, 70 nM and 690 nM.
`CN1CCN(CCCCNc2cc3c(cn2)cc(-c2c(Cl)cccc2Cl)c(=O)n3C)CC1` [Example I, 3-(2,6-dichlorophenyl)-1-methyl-7-[4-(4-methylpiperazin-1-yl)butylamino]-1H-[1,6]naphthyridin-2-one]: the IC50 in assay [1] came out at 40 nM; in assay [3] it was 950 nM.
Taken in the same sequence, the figures for `CN1CCN(CCCCCNc2cc3c(cn2)cc(-c2c(Cl)cccc2Cl)c(=O)n3C)CC1` [Example J, 3-(2,6-dichlorophenyl)-1-methyl-7-[5-(4-methylpiperazin-1-yl)pentylamino]-1H-[1,6]naphthyridin-2-one] were 30 nM and 850 nM.
As for `Cn1c(=O)c(-c2c(Cl)cccc2Cl)cc2cnc(NCCCn3ccnc3)cc21` [Example L, 3-(2,6-dichlorophenyl)-7-[3-(imidazol-1-yl)propylamino]-1-methyl-1H-[1,6]naphthyridin-2-one], the IC50 in assay [1] was 540 nM; in assay [3], 1700 nM.
For `Cn1c(=O)c(-c2c(Cl)cccc2Cl)cc2cnc(Nc3ccncc3)cc21` [Example N, 3-(2,6-dichlorophenyl)-1-methyl-7-(4-pyridylamino)-1H-[1,6]naphthyridin-2-one], the IC50 worked out at 550 nM in assay [1], 3300 nM in assay [2] and 9600 nM in assay [3].
Taken in the same sequence, the figures for `COc1ccc(Nc2cc3c(cn2)cc(-c2c(Cl)cccc2Cl)c(=O)n3C)cc1` [Example O, 3-(2,6-dichlorophenyl)-7-[(4-methoxyphenyl)amino]-1-methyl-1H-[1,6]naphthyridin-2-one] were 1700 nM, 1200 nM and 1700 nM.
Turning to `Cn1c(=O)c(-c2c(Cl)cccc2Cl)cc2cnc(NCCCCN3CCOCC3)cc21` [Example Q, 3-(2,6-dichlorophenyl)-1-methyl-7-[4-(4-morpholino)butylamino]-1H-[1,6]naphthyridin-2-one], the IC50 in assay [1] was found to be 50 nM; in assay [3], 3100 nM.
Consider `CN1CCN(CCCOc2ccc(Nc3cc4c(cn3)cc(-c3c(Cl)cccc3Cl)c(=O)n4C)cc2)CC1` [Example T, 3-(2,6-dichlorophenyl)-1-methyl-7-[(4-(3-(4-methylpiperazin-1-yl)propoxy)phenyl)amino]-1H-[1,6]naphthyridin-2-one], for which the IC50 in assay [1] came out at 30 nM; in assay [3], 370 nM.
Taken in the same sequence, the figures for `CN1CCN(c2ccc(Nc3cc4c(cn3)cc(-c3c(Cl)cccc3Cl)c(=O)n4C)cc2)CC1` [Example U, 3-(2,6-dichlorophenyl)-1-methyl-7-[(4-(4-methylpiperazin-1-yl)phenyl)amino]-1H-[1,6]naphthyridin-2-one] were 20 nM and 260 nM.

The IC50 is the concentration needed to halve the response being measured.
